A word on the melting point: it is the temperature of the solid-liquid transition.

For data set [1], the target named is T1, hPPARα (LBD) (Homo sapiens, UniProt Q07869).
T1 construct: A receptor expression plasmid (pSG5-GAL4-hPPARα or γ or δ (LBD)); GAL4 (fusion partner); expressed in transfected cells; host or cells: CV-1 cells (ATCC)
T1 sequence (Q07869 239-466 limits assumed): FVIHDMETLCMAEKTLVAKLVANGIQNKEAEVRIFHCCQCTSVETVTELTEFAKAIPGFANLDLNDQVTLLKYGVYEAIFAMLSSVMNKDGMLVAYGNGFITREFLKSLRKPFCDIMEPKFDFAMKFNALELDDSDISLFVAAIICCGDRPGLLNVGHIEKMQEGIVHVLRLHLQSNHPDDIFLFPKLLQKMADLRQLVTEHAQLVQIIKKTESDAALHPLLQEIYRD
The data set is described as follows: PPAR activating function, GAL4-hPPARα (LBD) luciferase reporter transfected into CV-1 cells. The data set is classed as cell-based. Particulars: control GW-590735 10^−6 M = 100%. On the procedure: (§1) The PPAR activating effect of the compound of the invention was determined by the following method:
(§2) A receptor expression plasmid (pSG5-GAL4-hPPARα or γ or δ (LBD)), a luciferase expression plasmid (MH100×4-TK-Luc), and a β-galactosidase expression plasmid (pCMX-β-GAL) are transfected into CV-1 cells (ATCC) (Kliewer, S. A. et al., (1992) Nature, 358: 771-774). After the gene transfer is conducted by utilizing a lipofection reagent (Lipofectamine 2000, Invitrogen), it is incubated for about 40 hours in the presence of a compound to be tested. The luciferase activity and β-GAL activity are measured on the soluble cells.
(§3) The luciferase activity is calibrated by the β-GAL activity. A relative ligand activity is calculated under the condition that the luciferase activity of the cells treated by GW-590735 for PPARα, Rosiglitazone for PPARγ, or GW-501516 for PPARδ is set to 100% to determine EC50 (see the below-mentioned Examples 14 and 15).
(§4) PPAR activating functions of test compounds (compounds of Examples) were measured in the manner described below.
(§5) A receptor expression plasmid (pSG5-GAL4-hPPARα or γ or δ (LBD)), a luciferase expression plasmid (pUC8-MH100×4-TK-Luc), and a β-galactosidase expression plasmid (pCMX-β-GAL) were transfected into CV-1 cells (ATCC) (Kliewer, S. A. et al., (1992) Nature, 358: 771-774). After the gene transfer was conducted by utilizing a lipofection reagent (Lipofectamine 2000, Invitrogen), it was incubated for about 40 hours in the presence of a compound to be tested. The luciferase activity and β-GAL activity were measured on the soluble cells.
(§6) The luciferase activity was calibrated by the β-GAL activity. A relative ligand activity was calculated under the condition that the luciferase activity of the cells treated by GW-590735 for PPARα, Rosiglitazone for […], or GW-501516 for PPARδ was set to 100% to determine EC50.
(§7) The tests were conducted in the same manner to Example 14 (1).
Background: Reporter assays use an easily measured gene product as a stand-in for the process of interest.

Data set [2] has as its target T2, hPPARγ (LBD) (Homo sapiens, UniProt P37231).
T2 construct: A receptor expression plasmid (pSG5-GAL4-hPPARα or γ or δ (LBD)); GAL4 (fusion partner); expressed in transfected cells; host or cells: CV-1 cells (ATCC)
T2 sequence (P37231 238-503 limits assumed): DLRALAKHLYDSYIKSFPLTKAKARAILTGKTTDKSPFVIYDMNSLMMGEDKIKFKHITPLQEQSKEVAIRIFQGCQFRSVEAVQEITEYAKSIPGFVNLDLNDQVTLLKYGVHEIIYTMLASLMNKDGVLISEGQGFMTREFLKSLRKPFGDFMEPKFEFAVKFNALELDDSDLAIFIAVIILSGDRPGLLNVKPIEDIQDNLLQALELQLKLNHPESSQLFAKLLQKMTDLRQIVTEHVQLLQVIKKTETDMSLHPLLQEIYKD
The data set is described as follows: PPAR activating function, GAL4-hPPARγ (LBD) luciferase reporter transfected into CV-1 cells. The data set is classed as cell-based. Particulars: control Rosiglitazone 10^−5 M = 100%. The method, then:
as §1, §2, §3, §4, §5, §6, §7

For data set [3], the target named is T3, hPPARδ (LBD) (Homo sapiens, UniProt Q03181).
T3 construct: A receptor expression plasmid (pSG5-GAL4-hPPARα or γ or δ (LBD)); GAL4 (fusion partner); expressed in transfected cells; host or cells: CV-1 cells (ATCC)
T3 sequence (Q03181 211-439 limits assumed): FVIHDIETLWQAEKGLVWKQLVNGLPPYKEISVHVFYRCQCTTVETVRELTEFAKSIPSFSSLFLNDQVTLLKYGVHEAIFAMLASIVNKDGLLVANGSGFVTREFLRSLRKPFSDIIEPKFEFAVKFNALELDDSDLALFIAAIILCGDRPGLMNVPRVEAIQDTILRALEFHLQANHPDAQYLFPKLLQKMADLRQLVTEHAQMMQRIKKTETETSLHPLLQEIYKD
The data set is described as follows: PPAR activating function, GAL4-hPPARδ (LBD) luciferase reporter transfected into CV-1 cells. The data set is classed as cell-based. The method, then:
as §1, §2, §3, §4, §5, §6, §7

Setting [4] is: 10^−7M of the test compound, control GW-501516 10^−7 M = 100%, CV-1 cells.
The mark [5] stands for this setting: 10^−6 M of the test compound (Examples 3 and 8).

For `CCc1cc(C(=O)CCc2sc(-c3ccc(C(F)(F)F)cc3)nc2C(C)C)ccc1CCC(=O)O` [Example 11, 3-[4-[3-[4-Isopropyl-2-[4-(trifluoromethyl)phenyl]-5-thiazolyl]propionyl]-2-ethylphenyl]propionic acid], in data set [1] (10^−7 M of the test compound), the “PPAR activity PPARα: relative value (control = 100%)” value is recorded as “Inactive”. The “PPAR activity PPARγ: relative value (control = 100%)” value in data set [2] (10^−7 M of the test compound) was “Inactive”. The “PPAR activity PPARδ: relative value (control = 100%)” value in data set [3] (setting [4]) is 89%.

In turn, `CC(C)c1oc(-c2ccc(Cl)cc2O)nc1CCC(=O)c1ccc(N(C)CC(=O)O)cc1` [Example 10, N-[4-[3-[2-(4-chloro-2-hydroxyphenyl)-5-isopropyl-4-oxazolyl]propionyl]phenyl]-N-methylglycine] showed a melting point of 166 to 168 °C. Moreover, the “PPAR activity PPARα: relative value (control = 100%)” value in data set [1] (10^−7 M of the test compound) was “Inactive”. Also, in data set [2] (10^−7 M of the test compound), the “PPAR activity PPARγ: relative value (control = 100%)” value was “Inactive”. The “PPAR activity PPARδ: relative value (control = 100%)” value in data set [3] (setting [4]) stood at 69%.

`Cc1cc(C(=O)CCc2sc(-c3ccc(C(F)(F)F)cc3)nc2C(C)C)ccc1CCC(=O)O` [Example 5, 3-[4-[3-[4-Isopropyl-2-[4-(trifluoromethyl)phenyl]thiazol-5-yl]propionyl]-2-methylphenyl]propionic acid]: the “PPAR activity PPARα (relative value, control = 100%)” value in data set [1] (10^−7 M of the test compound) is listed as “Inactive”. In addition, in data set [2] (10^−7 M of the test compound), the “PPAR activity PPARγ (relative value, control = 100%)” value is reported as “Inactive”. Besides, the “agonist function for PPARδ (in words)” value in data set [3] (summary of Tables 38 and 39) is on record as “particularly strong agonist function”.

On to `CC(C)c1cc(-c2ccc(C(F)(F)F)cc2)sc1CCC(=O)c1ccc(N(C)CC(=O)O)cc1` [Example 9, N-[4-[3-[3-Isopropyl-5-[4-(trifluoromethyl)phenyl]thiophen-2-yl]propionyl]phenyl]-N-methylglycine], for which the “PPAR activity PPARα (relative value, control = 100%)” value in data set [1] (10^−7 M of the test compound) is listed as “Inactive”. Also, the “PPAR activity PPARγ (relative value, control = 100%)” value in data set [2] (10^−7 M of the test compound) was “Inactive”.

With `CC(C)c1nc(-c2ccc(C(F)(F)F)cc2)sc1CCC(=O)c1ccc(N(C)CC(=O)O)cc1` [Example 7, N-[4-[3-[4-Isopropyl-2-[4-(trifluoromethyl)phenyl]thiazol-5-yl]propionyl]phenyl]-N-methylglycine], the “PPAR activity PPARα (relative value, control = 100%)” value in data set [1] (10^−7 M of the test compound) was “Inactive”. In data set [2] (10^−7 M of the test compound), the “PPAR activity PPARγ (relative value, control = 100%)” value is “Inactive”.

As for `Cc1cc(C(=O)CCc2nc(-c3ccc(Cl)cc3O)oc2C(C)C)ccc1CCC(=O)O` [Example 12, 3-[4-[3-[2-(4-Chloro-2-hydroxyphenyl)-5-isopropyl-4-oxazolyl]propionyl]-2-methylphenyl]propionic acid], the melting point lay within 141 to 144 °C. In addition, in data set [1] (10^−7 M of the test compound), the “PPAR activity PPARα: relative value (control = 100%)” value was “Inactive”. Also, the “PPAR activity PPARγ: relative value (control = 100%)” value in data set [2] (10^−7 M of the test compound) is “Inactive”. Besides, the “PPAR activity PPARδ: relative value (control = 100%)” value in data set [3] (setting [4]) worked out at 93%.

Consider `Cc1cc(C(=O)C=Cc2sc(-c3ccc(C(F)(F)F)cc3)nc2C(C)C)ccc1C=CC(=O)O` [Example 4, 3-[4-[3-[4-Isopropyl-2-[4-(trifluoromethyl)phenyl]thiazol-5-yl-]propenoyl]-2-methylphenyl]acrylic acid], for which the “PPAR activity PPARα (relative value, control = 100%)” value in data set [1] (10^−7 M of the test compound) is given as “Inactive”. Besides, in data set [2] (10^−7 M of the test compound), the “PPAR activity PPARγ (relative value, control = 100%)” value is “Inactive”. Moreover, the “PPAR activity PPARδ (relative value, control = 100%)” value in data set [3] (setting [4]) is reported as 22%.

For the compound `Cc1cc(C(=O)CCc2nc(-c3ccccc3O)oc2C(C)C)ccc1CCC(=O)O` [Example 13, 3-[4-[3-[5-Isopropyl-2-(2-hydroxyphenyl)-4-oxazolyl]propionyl]-2-methylphenyl]propionic acid], the “PPAR activity PPARα: relative value (control = 100%)” value in data set [1] (10^−6 M of the test compound) is reported as “Inactive”. In data set [2] (10^−6 M of the test compound), the “PPAR activity PPARγ: relative value (control = 100%)” value is reported as “Inactive”. Also, the “PPAR activity PPARδ: relative value (control = 100%)” value in data set [3] (10^−6 M of the test compound, control GW-501516 10^−7 M = 100%, CV-1 cells) was determined as 62%.

`CCCCCCc1nc(-c2ccc(C)cc2)sc1CCC(=O)c1ccc(CCC(=O)O)c(C)c1` [Example 1, 3-[4-[3-[4-Hexyl-2-(4-methylphenyl)thiazol-5-yl]propionyl]-2-methylphenyl]propionic acid]: in data set [1] (10^−7 M of the test compound), the “PPAR activity PPARα (relative value, control = 100%)” value is recorded as “Inactive”. Moreover, the “PPAR activity PPARγ (relative value, control = 100%)” value in data set [2] (10^−7 M of the test compound) is reported as “Inactive”.

Regarding `Cc1cc(C(=O)CCc2nc(-c3ccccc3)oc2C(C)C)ccc1CCC(=O)O` [Example 3, 3-[4-[3-(5-Isopropyl-2-phenyl-4-oxazolyl)propionyl]-2-methylphenyl]propionic acid], the “PPAR activity PPARα (relative value, control = 100%)” value in data set [1] (setting [5]) is recorded as “Inactive”. Further, in data set [2] (setting [5]), the “PPAR activity PPARγ (relative value, control = 100%)” value is on record as “Inactive”.

Consider `Cc1cc(C(=O)CCc2sc(-c3ccc(C(F)(F)F)cc3)cc2C(C)C)ccc1CCC(=O)O` [Example 2, 3-[4-[3-[3-Isopropyl-5-[4-(trifluoromethyl)phenyl]thiophen-2-yl]propionyl]-2-methylphenyl]propionic acid], for which, in data set [1] (10^−7 M of the test compound), the “PPAR activity PPARα (relative value, control = 100%)” value is “Inactive”. In data set [2] (10^−7 M of the test compound), the “PPAR activity PPARγ (relative value, control = 100%)” value is listed as “Inactive”.

With `CC(C)c1nc(-c2ccc(C(F)(F)F)cc2)sc1CCC(=O)c1ccc(NCC(=O)O)cc1` [Example 8, N-[4-[3-[4-Isopropyl-2-[4-(trifluoromethyl)phenyl]thiazol-5-yl]propionyl]phenyl]glycine], the “PPAR activity PPARα (relative value, control = 100%)” value in data set [1] (setting [5]) is reported as “Inactive”. For the same compound, in data set [2] (setting [5]), the “PPAR activity PPARγ (relative value, control = 100%)” value is “Inactive”.

Consider `C=C(CCc1sc(-c2ccc(C(F)(F)F)cc2)nc1C(C)C)c1ccc(CCC(=O)O)c(C)c1` [Example 6, 3-[4-[1-[2-[4-Isopropyl-2-[4-(trifluoromethyl)phenyl]thiazol-5-yl]ethyl]vinyl]-2-methylphenyl]propionic acid], for which, in data set [1] (10^−7 M of the test compound), the “PPAR activity PPARα (relative value, control = 100%)” value is listed as “Inactive”. Also, in data set [2] (10^−7 M of the test compound), the “PPAR activity PPARγ (relative value, control = 100%)” value is “Inactive”.

The record behind these values is US8404726B2, “Activating agent for peroxisome proliferator activated receptor δ” (Nippon Chemiphar Co. Ltd., priority 2006, dated 2013).
